In patent publication US20210137897A1, “TOPICAL mTOR INHIBITORS FOR CUTANEOUS PROLIFERATIVE AND VASCULAR CONDITIONS” (GEORGETOWN UNIVERSITY, priority 2019, published 2021):

Key:
[1] = tested on: Langerhans cell histiocytosis, multisystem disease; conditions: in combination with a single dose of methylprednisolone; cited from earlier work
keloids = experiment: Case report: 1% topical rapamycin on keloidal, contracted burn scar; assay type: in vivo, human; conditions: 1% topical rapamycin one to two times a day on thigh scar
Description: As an adjuvant treatment, they treated their worst keloidal, contracted scar on their thigh with 1% topical rapamycin one to two times a day.

[2] = tested on: capillary malformation-arteriovenous malformation (CM-AVM) syndrome; experiment: Case report: topical 1% rapamycin cream in CM-AVM syndrome; assay type: in vivo, human; conditions: topical 1% rapamycin cream twice a day to the face
Description: A person presented with several well demarcated pink to slightly tan patches with perilesional halos/rims of pallor scattered on their body, including one on their face. Many of those birthmarks were present since birth or at least since a very young age. The patient's parent also had similar-appearing birthmarks. The patient was otherwise well. Genetic testing confirmed a pathogenic variant identified in RASA1 gene consistent with capillary malformation-arteriovenous malformation (CM-AVM) syndrome. Per the patient and their parent's interest in a topical treatment, off-label use of topical 1% rapamycin cream was used twice a day to the lesion on the face.

[3] = cited from earlier work
[4] = tested on: venolymphatic malformation; experiment: Case report: topical 1% sirolimus cream in venolymphatic malformation; assay type: in vivo, human
Description: A person presented with a birthmark on the left thigh, present since birth. […] Clinically, it appeared most consistent with a mixed venolymphatic malformation, possibly with a small capillary component to it. Over the last few years, it began scabbing and occasionally bleeding at the surface. The deeper areas sometimes caused a throbbing pain. A decision was made to start treatment with topical 1% sirolimus cream twice a day. After 1.5 to 2 months treatment, the birthmark started to improve. Before starting topical sirolimus, they had painful episodes (6/10 severity) 2-3× per week that lasted 15-20 minutes. […] Additionally, overall the lesion was much flatter since starting the topical sirolimus. Their quality of life improved now that they were is in much less pain.
Previous reports have shown effectiveness of oral sirolimus in the treatment of venolymphatic malformations; however, to the best of inventor's knowledge, topical treatment has never been reported. This patient's venolymphatic malformation improved both symptomatically and improved in appearance with topical 1% rapamycin treatment. […] Additionally, inventor expects that all superficial or cutaneous vascular malformations and cutaenous vascular conditions would respond to treatment with topical mTOR inhibitor.

[5] = Sirolimus blood levels during topical treatment of the non-LCH patient; assay type: in vivo, human; conditions: at 1 month; topical rapamycin (1%) ointment to left face
Description: Topical rapamycin (1%) compounded in ointment was initiated to the left face with the right face serving as a control. Sirolimus blood levels were negative at 1 month.

[6] = tested on: confluent and reticulated papillomatosis (CARP); experiment: Case report: topical 1% rapamycin cream in confluent and reticulated papillomatosis; assay type: in vivo, human; conditions: 1% rapamycin cream twice a day for 3 months
Description: FIG. 1A is a photographic image of the chest of a patient afflicted with confluent and reticulated papillomatosis (CARP) before starting 3 months' treatment with topically applied 1% rapamycin (sirolimus).
FIG. 1B is a photographic image of the chest of the patient in FIG. 1A following 3 months' treatment with topically applied 1% rapamycin (sirolimus).
A person was initially diagnosed with CARP in October 2015 when they presented with numerous hyperpigmented, slightly velvety macules with a fine overlying scale coalescing into reticulated and confluent patches on their chest, neck, and upper back. […] They then embarked upon a course of topical 1% rapamycin cream applied to affected areas twice a day for 3 months. […] Pre- and post treatment photographs are presented as FIGS. 1A and 1B, respectively.

COc1cc([C@@H]2c3cc4c(cc3[C@@H](O[C@@H]3O[C@@H]5CO[C@@H](C)O[C@H]5[C@H](O)[C@H]3O)[C@H]3COC(=O)[C@H]23)OCO4)cc(OC)c1O [etoposide]
disease response [1]: 65%
reactivation [1]: 55%
survival [1]: 83%
toxicity [1]: 58%

CO[C@H]1C[C@@H]2CC[C@@H](C)[C@@](O)(O2)C(=O)C(=O)N2CCCC[C@H]2C(=O)O[C@H]([C@H](C)C[C@@H]2CC[C@@H](O)[C@H](OC)C2)CC(=O)[C@H](C)/C=C(\C)[C@@H](O)[C@@H](OC)C(=O)[C@H](C)C[C@H](C)/C=C/C=C/C=C/1C [sirolimus, Sirolimus]
tolerability (keloids): tolerated the treatment well without any known side effects
tolerability [2]: tolerated well without side effects
water solubility [3]: poorly water soluble
duration of pain episode ([4]; after 1-2 months of topical 1% sirolimus, before treatment 15-20 minutes): about 10 minutes
treatment time until the birthmark started to improve ([4]; person, topical 1% sirolimus cream twice a day): 1.5 to 2 months
Sirolimus blood levels [5]: negative
local tolerability at the site of application [6]: denied having any itching, burning, or pain

CC[C@]1(O)C[C@@H]2CN(CCc3c([nH]c4ccccc34)[C@@](C(=O)OC)(c3cc4c(cc3OC)N(C)[C@H]3[C@@](O)(C(=O)OC)[C@H](OC(C)=O)[C@]5(CC)C=CCN6CC[C@]43[C@@H]65)C2)C1 [vinblastine]
disease response [1]: 58%
reactivation [1]: 61%
survival [1]: 76%
toxicity [1]: 47%
